Results on eight compounds are retold here after patent US10953027B2, “Active agents and methods of their use for the treatment of metabolic disorders and nonalcoholic fatty liver disease” (Flagship Pioneering Innovations V, Inc., priority 2018, dated 2021).

A value given as a limit tells only on which side of the number the result lay.

One series deals with Mouse myocyte. In words: Mouse myocyte lipolysis assay. The class given is cell-based. The note with it: Mus musculus, read-out: Free glycerol % DMSO. As for the experimental part:
Cells were obtained from ATCC and cultured in Dulbecco's Modified Eagle's medium (DMEM) containing 20% fetal bovine serum and 1% penicillin/streptomycin at 37° C. in an incubator with 5% CO2. Once the cells became confluent, they were seeded into a tissue culture treated 96 well plate. The next day, the medium containing DMEM with 2% equine serum was used to start differentiation. Once cells were fully differentiated, they were treated with indicated compounds.

The test system of another series is naïve CD4+ T cells. In words: Human regulatory T cell differentiation assay. In kind it is cell-based. To be noted: 6 days. The protocol:
Peripheral blood mononuclear cells (PBMCs) from whole blood donated by health volunteers were separated by Ficoll-Paque gradient centrifugation and naïve CD4^+ T cells were subsequently isolated using magnet beads (EasySep™ Human Naïve CD4^+ T Cell Isolation Kit, Cambridge, Mass.). For regulatory T cell (Treg) differentiation assay, naïve CD4^+ T cells were cultured (1-10×10^4 cells) in CTS OpTmizer medium for 6 days and stimulated with 5 ng/ml TGF-β, 100 U/ml IL-2, and ImmunoCult™ Human […] T Cell Activator; Stemcell #10990) with/without our Compounds. Cell viability was determined using a viability dye (eBioscience Fixable Viability Dye eFluor 780: ThermoFisher 65-0865-14) at 1:500 dilution. The cells were gated for Treg, defined as Live, CD11c^−, CD14^−, CD19^−, CD8^−, CD4^+, CD3^+, CD25^+, FOXP3^+. Percent (%) Tregs were calculated as percentage of CD4^+, CD25^+, FOXP3^+ cells over total CD4^+ T cells. Statistical analysis was performed with GraphPad Prism Software Using One-Way ANOVA.

A further series concerns Mouse 3T3-L1 cells. In words: Mouse adipocyte lipolysis assay. In kind it is cell-based. The note with it: Mus musculus, 3T3-L1, 24 hours, read-out: Lipolysis Free Fatty Acids % DMSO. The protocol:
Once the cells became confluent, they were seeded into a tissue culture treated 96 well plate. […] After 14 days of differentiation, cells were treated with compounds of interest. After 24 hours post-treatment, the cell viability was assessed using CellTiter-Glo Luminescent Cell Viability Assay from Promega, and lipolysis was determined using Lipolysis Assay Kit from ZenBio.

A further series deals with C57BL/6 DIO mice. In words: DIO animal model of NAFLD/NASH in young mice (Example 16). In kind it is in vivo. The note with it: for % Weight change: 12 weeks; for OGTT: Day 82, 2 g/kg glucose PO; for % Difference compared to ctrl: weight change vs HFD ctrl. Set-up: OGTT: unit not given beside the values. An excerpt: Species (number, sex, age/weight): C57BL/6 DIO mice (120+10 spares, male, ˜18 weeks of age) from Jackson Laboratories, Stock #380050. Note: 18 week old DIO mice sent sent with a minimum body weight of 39 grams. Spare animals may be used to replace study animals, as required, euthanized after completion of dose administration or transferred to Testing Facility Docket 07-12.
Cage Side Observations (Animal Health Checks): Cage side animal's health checks will be performed at least once daily to check for general health, mortality and moribundity. Clinical Observations: Clinical observations will be performed per exception. Body Weights: Body weights for all animals will be recorded prior to Day 1 and at least twice weekly thereafter, including prior to necropsy ([…]).
Dose Administration: Dosing for Groups 3-8 will be provided ad libitum in the diet. Dosing for Groups 9 (Saline) and 10 (Semaglutide at 123.4 μg/kg) in a 5 mL/kg volume, will begin on Day 1, and be performed 3 times weekly for 12 weeks by SC administration. Residual Test Article: All residual high fat diets will be frozen at nominally −20° C., and at the end of the study, several pellets of the diets for groups 2-9 (in 50-ml conical tubes) will be shipped to Sponsor, and the rest will be discarded. Residual control diets (group 1) will be stored ambient, and at the end of the study, several pellets in a 50 mL conical tube will be shipped to Sponsor and the rest is discarded. Residual test material for Group 10 will be stored at nominally −70° C., and at the end of the study, an aliquot of test material will be shipped to Sponsor, and the rest will be discarded.
Oral Glucose Tolerance Test (oGTT) On Day 82 (+/−2 days) an oGTT will be performed. Following an approximate 4 hour fast, 2 g/kg glucose (50% Dextrose diluted in sterile water for injection to a concentration of 0.4 g/mL) will be administered at 5 mL/kg via oral gavage (PO). Blood will be collected pre-glucose challenge (t=0) and at t=15, 30, 60, 90, and 120 minutes following the glucose challenge. Whole blood glucose levels will be evaluated at all time points using a handheld glucometer and will be reported in the Data Submission. This will be scheduled on a Tuesday or Thursday to avoid Group 9/10 dosing days.
Oral Glucose Tolerance Test (oGTT) On Day 82 (+/−2 days) an oGTT will be performed. Following an approximate 4 hour fast, 2 g/kg glucose (50% Dextrose diluted in sterile water for injection to a concentration of 0.4 g/mL) will be administered at 5 mL/kg via oral gavage (PO). Blood will be collected pre-glucose challenge (t=0) and at t=15, 30, 60, 90, and 120 minutes following the glucose challenge. Whole blood glucose levels will be evaluated at all time points using a handheld glucometer and will be reported in the Data Submission.

Series [1] in a line: Assay 1. Stability in Simulated Gastric Fluid (SGF). The class given is in vitro ADME. To be noted: 1 μM, 37° C., SGF pH 1.6 with pepsin. The gist of the method: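 Acylated compounds at a final 1 μM (diluted from 1 mM DMSO stock) were incubated at 37 °C in SGF of pH 1.6 NaCl buffer with FaSSIF powder and 0.1 mg/mL pepsin. Aliquots were quenched with acetonitrile at T0 and regular intervals, and degradation rates were determined by LC/MS.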

The nature of series [2]: Assay 2. Stability in Simulated Intestinal Fluid (SIF). In kind it is in vitro ADME. To be noted: 1 μM, 37° C., SIF pH 6.7 with pancreatin. The gist of the method:
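Acylated compounds at 1 μM (from 1 mM DMSO stock) in fresh SIF: FaSSIF with pancreatin in pH 6.7 phosphate buffer, agitated at 37 °C. Aliquots from T0 onward quenched with 1 volume acetonitrile; LC/MS gives degradation rates.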

A further series has as its system Male DIO mice. In words: In vivo evaluation for glucose disposal and lipidemia in DIO mice (Example 11). The note with it: for Fasting blood glucose levels (time 0 from OGTT): 28 days, 16 hour fast; for glucose AUC (0-120 min): OGTT day 28, glucose 2.0 g/kg PO. The protocol:
The DIO mice were prepared by feeding male C57BL/6 mice a high fat diet (HFD, Research Diets D12492) from 6-14 weeks of age. DIO mice were housed individually and maintained on the HFD through the duration of study. A twelve-hour light cycle was maintained with room temperature maintained at 22-25° C. All of the mice were acclimated to the facility for 5 days prior to starting the study.
Following 5 days of facility acclimation, DIO mice were randomized into 8 groups of 10 based on body weight and blood glucose for assignment to treatment, as shown in Table 9:
All treatments were administered admixed in HFD (Research Diets, New Brunswick N.J.) and were provided ad libitum for 30 days. Drinking water for group 7 was supplemented with 1, 3 Butanediol at 3% concentration.
Body weight was recorded at baseline and twice weekly thereafter. Feed and water intakes were recorded each Monday, Wednesday, and Friday.
Blood samples (<3 μL) were obtained one hour post dose by tail clip at baseline and weekly thereafter for measurement of fed blood glucose by StatStrip. Additional anti-coagulated blood samples (100 μl, EDTA di-potassium salt) were obtained by tail clip one hour post-dose at baseline, day 14 and day 30. Anti-coagulated samples were quick frozen and stored on dry ice.
Animals were subjected to a 16 hour fast for performance of an oral glucose tolerance test (OGTT) on day 28. Blood samples were obtained via tail clip just prior to (8 am) and 15, 30, 60, 90, and 120 minutes post-glucose load (2.0 g/kg, PO) for assay of whole blood glucose (StatStrip). Feed was returned following last sample.
Animals were terminated on day 30-31 using CO2 inhalation and induction of pneumothorax. Terminal blood samples were obtained by cardiac puncture. Whole blood was processed to serum and analyzed for serum cholesterol, triglycerides, high density lipoprotein (HDL), low density lipoprotein (LDL) and non-esterified fatty acids (NEFA) using AU480 clinical analyzer.
Organ weights (liver, spleen, subcutaneous fat, inguinal fat, abdominal fat, and epididymal fat) were recorded. Sections of each fat were frozen or fixed in 4% paraformaldehyde/PBS, pH 6.9; Fat samples were placed on dry ice. Fixed liver samples (4% paraformaldehyde) were sent to Premier Laboratories for H&E staining and scoring for steatosis, inflammation and fibrosis. Spleen samples were prepared in ice cold 5% bovine serum albumin (BSA) in PBS or 4% paraformaldehyde. Sections of brain, heart, lung, and small and large intestine were fixed in 10% formalin.
All data are represented as group mean±SEM. Data were analyzed using JMP (SAS software). All normalizations were calculated using terminal body weight.
Baseline differences among groups were identified using Tukey-Kramer Hsd<0.05. Treatment effects compared to control were determined using Oneway ANOVA (*, p<0.05) followed by Dunnett's test where appropriate.

On to `CC[C@H]1[C@@H](O)[C@@H]2[C@H](CC[C@]3(C)[C@@H]([C@H](C)CCC(=O)O)CC[C@@H]23)[C@@]2(C)CC[C@@H](O)C[C@@H]12` [Obeticholic acid, obeticholic acid], for which the activity at 100 µM is 90 to 100% in the series on Mouse myocyte (100 μM); 110 to 130% in the series on naïve CD4+ T cells (Homo sapiens, CD4+ T, 144 h, 100 uM, read-out: Treg induction % DMSO); 90 to 100% in the series on Mouse 3T3-L1 cells (100 μM). In the series on naïve CD4+ T cells (100 uM), the “Cell viability % DMSO” value was “= (90%≥ ≤110%: =)”.
For `CCCC(=O)OCC[C@@H](C)OC(=O)Oc1ccc(/C=C/c2cc(OC(=O)O[C@H](C)CCOC(=O)CCC)cc(OC(=O)O[C@H](C)CCOC(=O)CCC)c2)cc1` [Compound 78, (3R,3′R)-((((5-((E)-4-(((((R)-4-(butyryloxy)butan-2-yl)oxy)carbonyl)oxy)styryl)-1,3-phenylene)bis(oxy))bis(carbonyl))bis(oxy))bis(butane-3,1-diyl) dibutyrate], in the series with C57BL/6 DIO mice (ad libitum in HFD), the “% Weight change” value stood at 21% and the “% Difference compared to ctrl” value is −2%. Besides, in the series with C57BL/6 DIO mice (ad libitum in HFD, ctrl HFD), the OGTT worked out at 29944 and the “% HbA1c” value turned out to be 6.14%. Also, the “Assay 1 (SGF) (% Remaining @ 1 hours)” value in series [1] is recorded as “C (C: >75% of the tested compound remaining)”. Further, the “Assay 2 (SIF) (% @ Remaining 4 hours)” value in series [2] was “A (A: <25% of the tested compound remaining)”.
Consider `CCCC(=O)Oc1cc(OC(=O)CCC)c2c(=O)c(OC(=O)CCC)c(-c3ccc(OC(=O)CCC)c(OC(=O)CCC)c3)oc2c1` [Compound 15, [2-butanoyloxy-4-[3,5,7-tri(butanoyloxy)-4-oxo-chromen-2-yl]phenyl] butanoate], for which, in the series on C57BL/6 DIO mice (ad libitum in HFD), the “% Weight change” value is on record as 23% and the “% Difference compared to ctrl” value is reported as 0%. In the series with C57BL/6 DIO mice (ad libitum in HFD, ctrl HFD), the OGTT is on record as 32722 and the “% HbA1c” value amounted to 6.50%. Further, the “Assay 1 (SGF) (% Remaining @ 1 hours)” value in series [1] is reported as “C (C: >75% of the tested compound remaining)”. The “Assay 2 (SIF) (% @ Remaining 4 hours)” value in series [2] was “B (B: 25-75% of the tested compound remaining)”.
As to Semaglutide [reference compound], the “% HbA1c” value with C57BL/6 DIO mice (123.4 μg/kg SC 3 times weekly for 12 weeks, ctrl Saline) is listed as 7.90%. The same compound gave an OGTT in the series with C57BL/6 DIO mice (123.4 μg/kg SC 3 times weekly, ctrl Saline) of 18214.
In the case of `CCCC(=O)O[C@H]1OC[C@H](OC(=O)CCC)[C@H](OC(=O)CCC)[C@H]1OC(=O)CCC` [Compound 184, (2R,3R,4S,5S)-3,4,5-tris(butanoyloxy)oxan-2-yl Butanoate], in the series with C57BL/6 DIO mice (ad libitum in HFD), the “% Weight change” value is reported as 11% and the “% Difference compared to ctrl” value is recorded as −12%. Besides, in the series on C57BL/6 DIO mice (ad libitum in HFD, ctrl HFD), the OGTT is given as 27257 and the “% HbA1c” value was found to be 5.96%.
In the case of `CCCC(=O)O` [Butyric acid], the activity at 3000 µM in the series on Mouse myocyte (3 mM) was less than 50%; in the series with Mouse 3T3-L1 cells (3 mM), 50 to 70%.
Consider `O=C(CCCc1ccccc1)Oc1cc(OC(=O)CCCc2ccccc2)c2c(c1)O[C@H](c1cc(OC(=O)CCCc3ccccc3)c(OC(=O)CCCc3ccccc3)c(OC(=O)CCCc3ccccc3)c1)[C@H](OC(=O)c1cc(OC(=O)CCCc3ccccc3)c(OC(=O)CCCc3ccccc3)c(OC(=O)CCCc3ccccc3)c1)C2` [Compound 5, [(2R,3R)-5,7-bis(4-phenylbutanoyloxy)-2-[3,4,5-tris(4-phenylbutanoyloxy)phenyl]chroman-3-yl] 3,4,5-tris(4-phenylbutanoyloxy)benzoate], for which the “Fasting blood glucose levels (time 0 from OGTT)” value stood at 107.3 ± 5.3 mg/dL with Male DIO mice (0.6% in HFD), 104.7 ± 4.3 mg/dL in the series on Male DIO mice (2% in HFD) and 95.1 ± 4.4 mg/dL with Male DIO mice (6% in HFD). In addition, the results for the “glucose AUC (0-120 min)” value in the series on Male DIO mice (0.6% in HFD), in the series with Male DIO mice (2% in HFD) and in the series with Male DIO mice (6% in HFD) were 29628.0 ± 1791.7 mg/dL/min, 27648.8 ± 866.3 mg/dL/min and 26049.0 ± 455.4 mg/dL/min, respectively.
Take `CCCC(=O)O` [Butyric Acid]: the “Cell viability % DMSO” value in the series on naïve CD4+ T cells (3 mM) was “− (<90%: −)”. In the series on naïve CD4+ T cells (Homo sapiens, CD4+ T, 144 h, 3 mM, read-out: Treg induction % DMSO), the activity at 3000 µM is less than 90%.
